According to ChEMBL document CHEMBL5352478, “Novel pyridine-containing histone deacetylase inhibitors strongly arrest proliferation, induce apoptosis and modulate miRNAs in cancer cells” (Eur J Med Chem, 2023):

The compounds below were run against Histone deacetylase 4 (Homo sapiens, UniProt P56524) (assay: not given). Conditions: not given; call rule not given here.
Histone deacetylase 4, sequence (P56524 whole entry): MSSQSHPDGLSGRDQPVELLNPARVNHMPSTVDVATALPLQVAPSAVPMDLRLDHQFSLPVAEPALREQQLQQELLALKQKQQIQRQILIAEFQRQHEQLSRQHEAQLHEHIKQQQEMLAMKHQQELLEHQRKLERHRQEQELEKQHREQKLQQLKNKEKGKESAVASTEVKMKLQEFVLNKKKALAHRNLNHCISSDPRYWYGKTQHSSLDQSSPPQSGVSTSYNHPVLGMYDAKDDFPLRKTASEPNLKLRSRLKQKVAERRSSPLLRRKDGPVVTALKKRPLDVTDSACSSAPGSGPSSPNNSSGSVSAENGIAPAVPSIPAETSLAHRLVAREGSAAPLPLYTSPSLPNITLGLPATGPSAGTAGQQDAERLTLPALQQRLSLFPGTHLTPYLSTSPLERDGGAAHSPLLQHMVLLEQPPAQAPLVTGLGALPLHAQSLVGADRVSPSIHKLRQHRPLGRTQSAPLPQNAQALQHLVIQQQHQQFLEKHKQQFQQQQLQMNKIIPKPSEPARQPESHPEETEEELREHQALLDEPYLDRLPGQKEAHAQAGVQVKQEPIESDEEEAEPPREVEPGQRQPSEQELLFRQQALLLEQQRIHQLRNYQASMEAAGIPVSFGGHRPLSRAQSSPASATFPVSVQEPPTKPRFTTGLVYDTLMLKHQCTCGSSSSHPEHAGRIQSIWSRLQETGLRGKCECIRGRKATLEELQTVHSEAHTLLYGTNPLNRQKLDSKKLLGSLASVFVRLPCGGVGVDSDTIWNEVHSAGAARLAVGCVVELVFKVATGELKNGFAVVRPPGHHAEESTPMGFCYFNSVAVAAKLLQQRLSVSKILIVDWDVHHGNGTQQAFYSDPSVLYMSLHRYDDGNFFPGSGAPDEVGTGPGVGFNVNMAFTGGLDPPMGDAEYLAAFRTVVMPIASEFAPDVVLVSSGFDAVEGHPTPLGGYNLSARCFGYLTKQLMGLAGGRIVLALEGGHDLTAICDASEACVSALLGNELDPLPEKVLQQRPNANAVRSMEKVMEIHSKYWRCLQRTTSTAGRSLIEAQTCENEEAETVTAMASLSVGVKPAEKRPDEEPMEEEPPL

SMILES | IC50
CCC(C(=O)Nc1ccc(/C=C/C(=O)Nc2ccccc2N)nc1)c1ccccc1 (centres undefined) | Not Active
Nc1ccccc1NC(=O)/C=C/c1ccc(NC(=O)Cc2ccc3ccccc3c2)cn1 | Not Active
Nc1ccccc1NC(=O)c1ccc(NC(=O)Cc2ccccc2)cn1 | Not Active
Nc1ccccc1NC(=O)/C=C/c1ccc(NC(=O)C(Cc2ccccc2)c2ccccc2)cn1 (centres undefined) | Not Active
Nc1ccccc1NC(=O)c1ccc(NC(=O)Cc2cccc3ccccc23)cn1 | Not Active
CCC(C(=O)Nc1ccc(C(=O)Nc2ccccc2N)nc1)c1ccccc1 (centres undefined) | Not Active

The compounds below were run on HCT-116 (assay: cells). Conditions: Homo sapiens, HCT-116, 72 h.
Assay type: functional, cell-based

SMILES | IC50 [nM]
Nc1ccccc1NC(=O)/C=C/c1ccc(NC(=O)Cc2ccc3ccccc3c2)cn1 | 3230
Nc1ccccc1NC(=O)c1ccc(NC(=O)Cc2ccccc2)cn1 | 560
Nc1ccccc1NC(=O)/C=C/c1ccc(NC(=O)C(Cc2ccccc2)c2ccccc2)cn1 (centres undefined) | 2740

Each compound was assayed on A549 (assay: cells). Conditions: Homo sapiens, A549, 72 h.
Assay type: functional, cell-based

SMILES | IC50 [nM]
Nc1ccccc1NC(=O)/C=C/c1ccc(NC(=O)Cc2ccc3ccccc3c2)cn1 | 7430
Nc1ccccc1NC(=O)c1ccc(NC(=O)Cc2ccccc2)cn1 | 1350
Nc1ccccc1NC(=O)/C=C/c1ccc(NC(=O)C(Cc2ccccc2)c2ccccc2)cn1 (centres undefined) | 4300

Each compound was assayed on K562 (assay: cells). Conditions: Homo sapiens, K562, 72 h.
Assay type: functional, cell-based

SMILES | IC50 [nM]
Nc1ccccc1NC(=O)/C=C/c1ccc(NC(=O)Cc2ccc3ccccc3c2)cn1 | 1700
Nc1ccccc1NC(=O)c1ccc(NC(=O)Cc2ccccc2)cn1 | 540
Nc1ccccc1NC(=O)/C=C/c1ccc(NC(=O)C(Cc2ccccc2)c2ccccc2)cn1 (centres undefined) | 1860

These compounds were tested against T1, Protein deacetylase HDAC6 (Homo sapiens, UniProt Q9UBN7) (assay: not given). Conditions: not given.
T1 sequence (Q9UBN7 whole entry): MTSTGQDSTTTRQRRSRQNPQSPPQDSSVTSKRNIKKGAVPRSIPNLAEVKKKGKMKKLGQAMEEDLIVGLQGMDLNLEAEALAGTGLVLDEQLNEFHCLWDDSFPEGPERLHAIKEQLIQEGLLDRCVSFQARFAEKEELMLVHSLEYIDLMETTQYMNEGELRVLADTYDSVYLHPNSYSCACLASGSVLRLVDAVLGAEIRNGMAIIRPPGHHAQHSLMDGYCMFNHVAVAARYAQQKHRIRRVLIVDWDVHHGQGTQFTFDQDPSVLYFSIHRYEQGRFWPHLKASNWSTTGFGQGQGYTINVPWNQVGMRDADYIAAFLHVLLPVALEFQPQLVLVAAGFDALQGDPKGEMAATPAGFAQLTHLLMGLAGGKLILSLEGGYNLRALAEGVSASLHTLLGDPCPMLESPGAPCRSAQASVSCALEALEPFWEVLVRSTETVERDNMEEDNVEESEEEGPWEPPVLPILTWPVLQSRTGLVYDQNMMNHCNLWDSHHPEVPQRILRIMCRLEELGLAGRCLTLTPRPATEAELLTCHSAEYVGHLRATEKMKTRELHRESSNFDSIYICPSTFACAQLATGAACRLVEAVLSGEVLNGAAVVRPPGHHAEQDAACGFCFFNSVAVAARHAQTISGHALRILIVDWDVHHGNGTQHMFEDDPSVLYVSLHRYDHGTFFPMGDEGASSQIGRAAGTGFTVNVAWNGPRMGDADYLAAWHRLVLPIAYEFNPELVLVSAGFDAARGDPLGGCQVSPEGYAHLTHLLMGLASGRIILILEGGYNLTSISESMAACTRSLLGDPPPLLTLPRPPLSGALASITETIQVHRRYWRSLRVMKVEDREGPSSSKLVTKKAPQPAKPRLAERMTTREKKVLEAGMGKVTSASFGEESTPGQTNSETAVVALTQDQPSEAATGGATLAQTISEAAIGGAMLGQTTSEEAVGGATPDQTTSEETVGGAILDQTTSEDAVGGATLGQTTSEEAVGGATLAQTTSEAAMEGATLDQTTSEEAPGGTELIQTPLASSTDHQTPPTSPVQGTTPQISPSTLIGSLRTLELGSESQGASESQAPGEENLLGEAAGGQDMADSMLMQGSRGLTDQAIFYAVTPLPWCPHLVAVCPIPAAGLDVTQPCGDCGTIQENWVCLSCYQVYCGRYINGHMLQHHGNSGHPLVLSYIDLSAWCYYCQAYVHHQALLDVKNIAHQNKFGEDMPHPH

SMILES | IC50
CCC(C(=O)Nc1ccc(/C=C/C(=O)Nc2ccccc2N)nc1)c1ccccc1 (centres undefined) | Not Active
Nc1ccccc1NC(=O)/C=C/c1ccc(NC(=O)Cc2ccc3ccccc3c2)cn1 | Not Active
Nc1ccccc1NC(=O)c1ccc(NC(=O)Cc2ccccc2)cn1 | Not Active
Nc1ccccc1NC(=O)/C=C/c1ccc(NC(=O)C(Cc2ccccc2)c2ccccc2)cn1 (centres undefined) | Not Active
Nc1ccccc1NC(=O)c1ccc(NC(=O)Cc2cccc3ccccc23)cn1 | Not Active
CCC(C(=O)Nc1ccc(C(=O)Nc2ccccc2N)nc1)c1ccccc1 (centres undefined) | Not Active

What follows are compounds tested against T2, Histone deacetylase 8 (Homo sapiens, UniProt Q9BY41) (assay: not given). Conditions: not given.
T2 sequence (Q9BY41 whole entry): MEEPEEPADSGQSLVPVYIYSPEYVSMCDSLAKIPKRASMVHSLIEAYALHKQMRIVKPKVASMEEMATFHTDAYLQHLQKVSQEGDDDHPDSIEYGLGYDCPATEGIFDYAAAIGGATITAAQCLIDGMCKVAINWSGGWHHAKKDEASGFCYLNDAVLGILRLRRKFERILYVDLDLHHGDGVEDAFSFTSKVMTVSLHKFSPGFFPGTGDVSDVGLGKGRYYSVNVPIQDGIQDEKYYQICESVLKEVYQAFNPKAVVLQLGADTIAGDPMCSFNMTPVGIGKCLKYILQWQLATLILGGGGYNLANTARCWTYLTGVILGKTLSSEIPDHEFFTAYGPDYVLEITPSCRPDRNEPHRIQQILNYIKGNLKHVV

SMILES | IC50
Nc1ccccc1NC(=O)/C=C/c1ccc(NC(=O)C(Cc2ccccc2)c2ccccc2)cn1 (centres undefined) | Not Active

Molecular target: T2, Histone deacetylase 8
Assay: not given
Conditions: not given
Remark: another data set of the same source

SMILES | IC50 [nM]
CCC(C(=O)Nc1ccc(/C=C/C(=O)Nc2ccccc2N)nc1)c1ccccc1 (centres undefined) | 35600
Nc1ccccc1NC(=O)/C=C/c1ccc(NC(=O)Cc2ccc3ccccc3c2)cn1 | 77100
Nc1ccccc1NC(=O)c1ccc(NC(=O)Cc2ccccc2)cn1 | 77100
Nc1ccccc1NC(=O)c1ccc(NC(=O)Cc2cccc3ccccc23)cn1 | 98400
CCC(C(=O)Nc1ccc(C(=O)Nc2ccccc2N)nc1)c1ccccc1 (centres undefined) | 66200

These compounds were tested against Histone deacetylase 3 (Homo sapiens, UniProt O15379) (assay: not given). Conditions: not given.
Histone deacetylase 3, sequence (O15379 whole entry): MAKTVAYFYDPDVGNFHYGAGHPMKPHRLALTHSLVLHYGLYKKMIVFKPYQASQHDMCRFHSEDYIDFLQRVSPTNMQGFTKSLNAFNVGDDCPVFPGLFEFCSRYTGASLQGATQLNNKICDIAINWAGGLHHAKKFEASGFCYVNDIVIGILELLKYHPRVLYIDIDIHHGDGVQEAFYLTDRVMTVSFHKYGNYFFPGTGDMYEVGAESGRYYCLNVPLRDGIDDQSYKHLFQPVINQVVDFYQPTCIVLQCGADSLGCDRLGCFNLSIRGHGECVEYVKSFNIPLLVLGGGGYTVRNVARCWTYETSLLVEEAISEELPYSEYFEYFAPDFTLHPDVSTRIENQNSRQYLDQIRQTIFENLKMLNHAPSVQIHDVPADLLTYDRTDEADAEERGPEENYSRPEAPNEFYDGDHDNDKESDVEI

SMILES | IC50 [nM]
CCC(C(=O)Nc1ccc(/C=C/C(=O)Nc2ccccc2N)nc1)c1ccccc1 (centres undefined) | 268
Nc1ccccc1NC(=O)/C=C/c1ccc(NC(=O)Cc2ccc3ccccc3c2)cn1 | 414
Nc1ccccc1NC(=O)c1ccc(NC(=O)Cc2ccccc2)cn1 | 248
Nc1ccccc1NC(=O)/C=C/c1ccc(NC(=O)C(Cc2ccccc2)c2ccccc2)cn1 (centres undefined) | 603
Nc1ccccc1NC(=O)c1ccc(NC(=O)Cc2cccc3ccccc23)cn1 | 289
CCC(C(=O)Nc1ccc(C(=O)Nc2ccccc2N)nc1)c1ccccc1 (centres undefined) | 433

The compounds below were run against Histone deacetylase 1 (Homo sapiens, UniProt Q13547) (assay: not given). Conditions: not given.
Histone deacetylase 1, sequence (Q13547 whole entry): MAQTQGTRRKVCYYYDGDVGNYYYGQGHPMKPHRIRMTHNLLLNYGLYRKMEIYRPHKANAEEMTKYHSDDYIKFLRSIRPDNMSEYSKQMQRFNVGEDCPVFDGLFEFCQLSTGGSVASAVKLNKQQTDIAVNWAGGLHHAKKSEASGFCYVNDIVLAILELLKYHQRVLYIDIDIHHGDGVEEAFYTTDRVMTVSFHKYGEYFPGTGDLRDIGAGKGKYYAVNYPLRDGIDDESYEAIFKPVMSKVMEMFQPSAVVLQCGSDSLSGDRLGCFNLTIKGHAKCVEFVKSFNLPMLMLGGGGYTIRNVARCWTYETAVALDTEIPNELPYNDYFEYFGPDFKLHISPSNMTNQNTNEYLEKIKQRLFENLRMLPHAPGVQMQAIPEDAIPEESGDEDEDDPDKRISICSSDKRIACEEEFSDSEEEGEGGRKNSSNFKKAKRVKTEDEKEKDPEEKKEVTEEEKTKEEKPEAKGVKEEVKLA

SMILES | IC50 [nM]
CCC(C(=O)Nc1ccc(/C=C/C(=O)Nc2ccccc2N)nc1)c1ccccc1 (centres undefined) | 143
Nc1ccccc1NC(=O)/C=C/c1ccc(NC(=O)Cc2ccc3ccccc3c2)cn1 | 203
Nc1ccccc1NC(=O)c1ccc(NC(=O)Cc2ccccc2)cn1 | 201
Nc1ccccc1NC(=O)/C=C/c1ccc(NC(=O)C(Cc2ccccc2)c2ccccc2)cn1 (centres undefined) | 496
Nc1ccccc1NC(=O)c1ccc(NC(=O)Cc2cccc3ccccc23)cn1 | 129
CCC(C(=O)Nc1ccc(C(=O)Nc2ccccc2N)nc1)c1ccccc1 (centres undefined) | 321
